Where a name gives a salt, the structure may show the parent alone. Read-outs that look alike come from different tables or passages of the source.

Data set [1] relates to human neutrophils. Description: Ca2+ mobilization assay, direct effect of compounds on [Ca2+]i. In kind it is cell-based. The following applies: Neutrophil; for Emax: % of the response induced by 5 nM fMLF, read-out: Efficacy (converted). From the text:
We screened 24 aza- and diaza-crown ethers with adamantyl, adamantylalkyl, aminomethylbenzoyl, and ε-aminocaproyl substituents for their Ca^2+ ionophore effects in human neutrophils. To monitor cytoplasmic Ca^2+ levels, we used the fluorescent Ca^2+ indicator Fluo-4, which is a dynamic single-wavelength fluorescent Ca^2+ indicator. Increases in fluorescence intensity (λex = 485 nm, λem = 538 nm) reflect the rise in cytoplasmic Ca^2+ concentrations ([Ca^2+]i; see Materials and Methods).
(§1) Changes in neutrophil intracellular Ca^2+ concentrations ([Ca^2+]i) were measured with a FlexStation 3 scanning fluorometer (Molecular Devices, Sunnyvale, CA, USA). Briefly, human neutrophils were suspended in HBSS^−, loaded with Fluo-4AM at a final concentration of 1.25 μg/mL, and incubated for 30 min in the dark at 37 °C. After dye loading, the cells were washed with HBSS^−, resuspended in HBSS^+, separated into aliquots, and loaded into the wells of flat-bottom, half-area well black microtiter plates (2 × 10^5 cells/well). To assess the direct effects of test compounds on Ca^2+ flux, the compounds were added to the wells (final concentration of DMSO was 1%), and changes in fluorescence were monitored (λex = 485 nm, λem = 538 nm) every 5 s for 240 s at room temperature after addition of the test compound. To evaluate inhibitory effects of the compounds on FPR1/FPR2-dependent Ca^2+ flux, the compounds were added to the wells (final concentration of DMSO was 1%) with cells (human neutrophils or FPR1/FPR2 HL60 cells). The samples were preincubated for 10 min, followed by addition of 5 nM fMLF (for human neutrophils or FPR1-HL60 cells) or 5 nM WKYMVM (for FPR2-HL60 cells). The maximum change in fluorescence, expressed in arbitrary units over baseline, was used to determine the agonist response. Responses were normalized to the response induced by 5 nM fMLF or 5 nM WKYMVM, which were assigned as 100%. Curve fitting (at least five or six points) and calculation of median effective concentration values (EC50 or IC50) were performed by nonlinear regression analysis of the dose–response curves generated using Prism 7 (GraphPad Software, Inc., San Diego, CA, USA). Efficacy was determined by comparing individual responses activated by the test compounds to that induced by a positive control (5 nM fMLF), which was assigned a value of 100%.
Background: Calcium flux is commonly read through the fluorescence of an indicator in the cells.

Data set [2] relates to human neutrophils. Description: Inhibition of fMLF-induced [Ca2+]i flux in human neutrophils. The following applies: Neutrophil, 10 min preincubation, 5 nM fMLF, N.A. = no activity at < 50 µM, read-out: FPR1/FPR2 Agonist-Induced Δ[Ca^2+]i Neutrophils IC50. In kind it is cell-based. The protocol:
(§2) Since these compounds elevated neutrophil [Ca^2+]i, and cytosolic Ca^2+ flux is a key component of neutrophil activation, we evaluated if they could alter neutrophil activation by FPR1 or FPR2 agonists. Neutrophils and FPR-transfected HL60 cells were preincubated for 10 min with crown ether compounds, and [Ca^2+]i flux was stimulated with either an FPR1 agonist (fMLF for human neutrophils and FPR1-HL60 cells) or an FPR2 agonist (WKYMVM for FPR2-HL60 cells).
as §1

Data set [3] deals with T1, FPR1 (Homo sapiens, UniProt P21462).
T1 construct: expressed in transfected cells
T1 sequence (P21462 1-350): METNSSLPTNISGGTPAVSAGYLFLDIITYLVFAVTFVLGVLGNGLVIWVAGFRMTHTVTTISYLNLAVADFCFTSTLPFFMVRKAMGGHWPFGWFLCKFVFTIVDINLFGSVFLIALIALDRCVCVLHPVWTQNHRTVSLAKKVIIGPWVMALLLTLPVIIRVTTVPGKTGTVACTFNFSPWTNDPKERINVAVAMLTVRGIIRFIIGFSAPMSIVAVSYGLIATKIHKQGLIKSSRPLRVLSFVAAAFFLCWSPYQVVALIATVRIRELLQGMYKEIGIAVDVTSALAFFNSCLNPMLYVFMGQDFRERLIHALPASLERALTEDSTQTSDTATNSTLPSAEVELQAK
Nature of the data set: Inhibition of fMLF-induced [Ca2+]i flux in FPR1-HL60 cells. In kind it is cell-based. To be noted: 10 min preincubation, 5 nM fMLF; N.A. = no activity at < 50 µM; read-out: FPR1/FPR2 Agonist-Induced Δ[Ca^2+]i FPR1-HL60 IC50. The protocol: as §2
(§3) Human promyelocytic leukemia HL60 cells stably transfected with FPR1 (FPR1-HL60 cells) or FPR2 (FPR2-HL60 cells) (kind gifts from Dr. Marie-Josephe Rabiet, INSERM, Grenoble, France) were cultured in RPMI 1640 medium supplemented with 10% heat-inactivated fetal calf serum, 10 mM HEPES, 100 μg/mL streptomycin, 100 U/mL penicillin, and G418 (1 mg/mL). Although stable cell lines are cultured under G418 selection pressure, G418 may affect some assays, so it was removed in the last round of culture before assays were performed.
as §1

In data set [4] the test system is human neutrophils. Description: fMLF-induced neutrophil chemotaxis (ChemoTx chambers). The data set is classed as cell-based. To be noted: 1 h, 1 nM fMLF, 60 min migration. How it is done: Human neutrophils were suspended in HBSS^+ containing 2% (v/v) heat-inactivated fetal bovine serum (2 × 10^6 cells/mL), and effects of the compounds on fMLF-induced chemotaxis was analyzed in 96-well ChemoTx chemotaxis chambers (Neuroprobe, Gaithersburg, MD, USA). In brief, neutrophils were preincubated with the indicated concentrations of the test compounds or DMSO for 20 min at room temperature and added to the upper wells of the ChemoTx chemotaxis chambers. The lower wells were loaded with 30 µL of HBSS^+ containing 2% (v/v) fetal bovine serum and the indicated concentrations of test sample plus 1 nM fMLF, DMSO (negative control), or 1 nM fMLF as a positive control. Neutrophils were added to the upper wells and allowed to migrate through the 5.0-µm pore polycarbonate membrane filter for 60 min at 37 °C and 5% CO2. The number of migrated cells was determined by measuring ATP in lysates of transmigrated cells using a luminescence-based assay (CellTiter-Glo; Promega, Madison, WI, USA), and luminescence measurements were converted to absolute cell numbers by comparison of the values with standard curves obtained with known numbers of neutrophils. Curve fitting (at least eight to nine points) and calculation of median effective concentration values (IC50) were performed by nonlinear regression analysis of the dose-response curves generated using Prism 5.

Data set [5] addresses T2, FPR2 (Homo sapiens, UniProt P25090).
T2 construct: expressed in transfected cells
T2 sequence (P25090 1-351): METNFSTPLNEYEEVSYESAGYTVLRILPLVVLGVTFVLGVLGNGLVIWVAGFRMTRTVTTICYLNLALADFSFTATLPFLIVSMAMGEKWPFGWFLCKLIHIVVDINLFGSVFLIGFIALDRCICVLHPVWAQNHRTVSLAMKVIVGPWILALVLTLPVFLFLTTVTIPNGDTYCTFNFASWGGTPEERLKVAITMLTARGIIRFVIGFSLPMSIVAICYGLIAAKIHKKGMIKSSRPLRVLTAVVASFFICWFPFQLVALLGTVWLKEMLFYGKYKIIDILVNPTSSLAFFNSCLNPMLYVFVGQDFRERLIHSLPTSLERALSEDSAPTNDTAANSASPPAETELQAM
Nature of the data set: Inhibition of WKYMVM-induced [Ca2+]i flux in FPR2-HL60 cells. To be noted: 10 min preincubation, 5 nM WKYMVM; N.A. = no activity at < 50 µM; read-out: FPR1/FPR2 Agonist-Induced Δ[Ca^2+]i FPR2-HL60 IC50. In kind it is cell-based. The protocol:
as §2, §3, §1

For data set [6], the system named is human neutrophils. Nature of the data set: PMA-induced ROS production (L-012 chemiluminescence). The data set is classed as cell-based. The following applies: Neutrophil, 200 nM PMA, N.A. = no activity at < 50 µM. From the text:
To evaluate if the crown ethers could also disrupt GPCR-independent functional activity, we evaluated the effects of these compounds on phorbol 12-myristate 13-acetate (PMA)-stimulated reactive oxygen species (ROS) production. […] A representative concentration-dependent response for the inhibition of PMA-stimulated neutrophil ROS production by compound 15 is shown in Figure 2B. Since ROS production in neutrophils also requires increased [Ca^2+]i, the results again confirm that the impact of these compounds on Ca^2+ flux kinetics can alter neutrophil function.
ROS production was determined by monitoring L-012-enhanced chemiluminescence, which represents a sensitive and reliable method for detecting superoxide anion (O2^−.) production. Human neutrophils were resuspended at 2 × 10^5 cells/mL in HBSS^+ supplemented with 40 µM L-012. Cells (100 µL) were aliquoted into wells of 96-well flat-bottomed microtiter plates containing test compounds at different concentrations (final DMSO concentration of 1%). Cells were preincubated for 10 min, and 200 nM PMA was added to each well to stimulate ROS production. Luminescence was monitored for 120 min (2-min intervals) at 37 °C using a Fluroscan Ascent FL microtiter plate reader (Thermo Electron, Waltham, MA, USA). The curve of light intensity (in relative luminescence units) was plotted against time, and the area under the curve was calculated as total luminescence. The compound concentration that inhibited ROS production by 50% of the PMA-induced response (positive control) was determined by graphing the percentage inhibition of ROS production versus the logarithm of concentration of test sample (IC50). Each curve was determined using five to seven concentrations.

Setting [7] is: Homo sapiens, elevation of [Ca2+]i, Fluo-4, N.A. = no activity was found at concentration < 50 µM, read-out: EC50, effect on [Ca^2+]i flux in human neutrophils.
[8] abbreviates: reciprocal of EC50 in human neutrophils, inactive compounds assigned zero, read-out: 1/[EC50] (converted).

In general, melting point refers to the temperature, or range, at which the solid turns liquid. `NCCCCCC(=O)N1CCOCCOCCN(C(=O)CCCCCN)CCOCC1` (as salt: hydrochloride) [Compound 22, N,N’-bis(6-aminohexanoyl)-4,10-diaza-15-crown-5 dihydrochloride] registered a melting point of 114 to 118 °C.
Still for that read-out and setting: next, `O=C(NC12CC3CC(CC(C3)C1)C2)C12CC3CC(CC(C3)C1)C2` [Compound 2, N-(1-adamantyl)adamantane-1-carboxamide]: 255 to 257 °C.
Molecule `O=C(CC12CC3CC(CC(C3)C1)C2)NC12CC3CC(CC(C3)C1)C2` [Compound 3, N,2-di(1-adamantyl)acetamide] registered a melting point of 242 to 244 °C.
`O=C(NC1CCCCC1)C12CC3CC(CC(C3)C1)C2` [Compound 4, N-cyclohexyladamantane-1-carboxamide] came in with a melting point of 174 to 176 °C.
`O=C(CC12CC3CC(CC(C3)C1)C2)N1CCOCCOCCOCCOCC1` [Compound 8, N-[2-(1-adamantyl)acetyl]aza-15-crown-5]: the EC50 was 22.4 ± 4.3 µM in data set [1] (setting [7]) and 22.4 µM in data set [1] (setting [8]). Also, the figures for the IC50 in data set [2], in data set [3] and in data set [4] were 2.6 ± 0.4 µM, 37.1 ± 4.8 µM and 13.2 ± 3.8 µM, respectively.
Take `O=C(N1CCOCCOc2ccccc2OCCOCC1)C12CC3CC(CC(C3)C1)C2` [Compound 10, N-[1-Oxo-1-(1-adamantyl)methyl]benzoaza-15-crown-5]: the melting point was 111 to 113 °C. Also, in data set [1] (Homo sapiens), the Emax was 25 to 50%. The EC50 in data set [1] (setting [7]) came to 9.7 ± 2.6 µM. Further, the EC50 in data set [1] (setting [8]) is 9.7 µM. In addition, in data set [2], the IC50 was determined as 11.2 ± 2.7 µM. In data set [3], the IC50 was 12.2 ± 1.9 µM. Also, the IC50 in data set [5] was found to be 36.4 ± 5.6 µM.
The molecule `O=C(CC12CC3CC(CC(C3)C1)C2)N1CCOCCOc2ccccc2OCCOCC1` [Compound 11, N-[2-(1-adamantyl)acetyl]benzoaza-15-crown-5] showed a melting point of 141 to 142 °C. In addition, in data set [1] (Homo sapiens), the Emax is 25 to 50%. The EC50 in data set [1] (setting [7]) stood at 15.6 ± 4.4 µM. Further, the EC50 in data set [1] (setting [8]) is 15.6 µM. The IC50 in data set [2] was 9.4 ± 0.6 µM. Besides, in data set [5], the IC50 was found to be 29.1 ± 3.2 µM. The IC50 in data set [4] was determined as 12.8 ± 5.3 µM.
In the case of `O=C(N1CCOCCN(C(=O)C23CC4CC(CC(C4)C2)C3)CCOCC1)C12CC3CC(CC(C3)C1)C2` [Compound 12, N,N’-bis[1-oxo-1-(1-adamantyl)methyl]-4,10-diaza-12-crown-4], the Emax in data set [1] (Homo sapiens) is 25 to 50%. In addition, the values for the EC50 in data set [1] (setting [7]) and in data set [1] (setting [8]) were 23.8 ± 7.6 µM and 23.8 µM, respectively. In addition, the values for the IC50 in data set [2] and in data set [4] were 4 ± 1.4 µM and 15.7 ± 4.2 µM, respectively.
Turning to `O=C(N1CCOCCOCCN(C(=O)C23CC4CC(CC(C4)C2)C3)CCOCCOCC1)C12CC3CC(CC(C3)C1)C2` [Compound 16, N,N’-bis[1-oxo-1-(1-adamantyl)methyl]-4,13-diaza-18-crown-6], the Emax in data set [1] (Homo sapiens) was 25 to 50%. Also, the EC50 is 15.7 ± 3.8 µM in data set [1] (setting [7]) and 15.7 µM in data set [1] (setting [8]). For the same molecule, the IC50 in data set [2] was 3.4 ± 0.8 µM; in data set [3], 7.3 ± 2.6 µM; in data set [5], 30.7 ± 6.4 µM; in data set [4], 5.3 ± 0.4 µM.
For `C1COCCN(CC23CC4CC(CC(C4)C2)C3)CCOCCN(CC23CC4CC(CC(C4)C2)C3)CCO1` [Compound 19, N,N’-bis[(1-adamantyl)methyl]-4,10-diaza-15-crown-5], the melting point lay in the range of 74 to 78 °C.
In the case of `C1COCCN(CCC23CC4CC(CC(C4)C2)C3)CCOCCOCCN(CCC23CC4CC(CC(C4)C2)C3)CCO1` [Compound 21, N,N’-bis[2-(1-adamantyl)ethyl]-4,13-diaza-18-crown-6], in data set [1] (Homo sapiens), the Emax is 25 to 50%. The values for the EC50 in data set [1] (setting [7]) and in data set [1] (setting [8]) were 11.3 ± 3.1 µM and 11.3 µM, respectively. The IC50 in data set [2] was 10.2 ± 2.6 µM; in data set [3], 9.6 ± 2.1 µM; in data set [5], 28.2 ± 2.6 µM; in data set [6], 15.3 ± 1.8 µM.

Source of the values: PMC8069214, “Synthesis, Biological Evaluation, and Molecular Modeling of Aza-Crown Ethers” (Molecules, 2021).
